Reference: PubChem BioAssay (NCI)
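Grown in 96-well plates, cells were treated for 48 hours with each compound at five concentrations. Insufficient inhibition: endpoint recorded as highest concentration tested. At the GI50, growth is halved. TGI: concentration producing complete growth inhibition.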

Legend:
Test in all cases: inhibition of tumour cell growth, NCI panel, 48 h
SK-MEL-2 melanoma = system: SK-MEL-2 melanoma
NCI-H522 lung = system: NCI-H522 lung
HCT-15 colon = system: HCT-15 colon
OVCAR-4 ovarian = system: OVCAR-4 ovarian
ACHN renal = system: ACHN renal
HOP-92 NSCLC = system: HOP-92 NSCLC
A549 NSCLC = system: A549 NSCLC
PC-3 prostate = system: PC-3 prostate
SR leukemia = system: SR leukemia
SK-MEL-5 melanoma = system: SK-MEL-5 melanoma

SMILES | TGI (SK-MEL-2 melanoma) [µM] | TGI (NCI-H522 lung) [µM] | TGI (HCT-15 colon) [µM] | TGI (OVCAR-4 ovarian) [µM] | TGI (ACHN renal) [µM] | TGI (HOP-92 NSCLC) [µM] | TGI (A549 NSCLC) [µM] | TGI (PC-3 prostate) [µM] | GI50 (SK-MEL-2 melanoma) [µM] | GI50 (NCI-H522 lung) [µM] | GI50 (HCT-15 colon) [µM] | GI50 (OVCAR-4 ovarian) [µM] | GI50 (ACHN renal) [µM] | GI50 (HOP-92 NSCLC) [µM] | GI50 (SR leukemia) [µM] | TGI (SR leukemia) [µM] | GI50 (A549 NSCLC) [µM] | GI50 (PC-3 prostate) [µM] | TGI (SK-MEL-5 melanoma) [µM]
CCOC(=O)C1CCCCN1C(=O)Cc1c[nH]c2ccccc12 (stereo unspecified) | > 100 | > 100 | > 100 | > 100 | > 100 | > 100 | > 100 | > 100 | – | – | – | – | – | – | – | – | – | – | –
COc1ccc(Nc2ccc([N+](=O)[O-])cc2[N+](=O)[O-])cc1CN(CCCl)CCCl | 5.66 | 4.29 | 9.93 | > 100 | 5.94 | 5.47 | 30.7 | 9.59 | 2.28 | 1.76 | 2.48 | 2.7 | 1.63 | 1.99 | 0.378 | 79.5 | 4.43 | 2.04 | –
CCCCCCCCCCCC[N+](CCCCCCCCCCCC)=C1SCCS1 | 23.2 | 19.5 | 22.9 | 11.3 | 25.1 | 23.1 | 18 | – | – | – | – | – | – | – | – | 15.2 | – | – | 18.5
COc1cc(Oc2nc3ccc(C(F)(F)F)cc3nc2-c2ccccc2)cc(OC)c1OC | – | > 100 | > 100 | 26.3 | 40.6 | 45.7 | 49.7 | > 100 | – | – | – | – | – | – | – | > 100 | – | – | 44.9
c1ccc(N=C2c3ccsc3C(=Nc3ccccc3)c3ccsc32)cc1 | 3.38 | 4.34 | 4.12 | 3.32 | 3.04 | 9.37 | 4.1 | 9.44 | – | – | – | – | – | – | – | – | – | – | 2.35
C[N+](C)(C)c1ncnc2c1ncn2C1CCCO1 (stereo unspecified) | > 100 | > 100 | > 100 | > 100 | > 100 | > 100 | > 100 | > 100 | – | – | – | – | – | – | – | – | – | – | > 100
CO/N=C1/c2sccc2[C@H](NC(=O)C(Cc2ccccc2)NC(=O)OC(C)(C)C)[C@@H]1O (stereo partly specified) | > 100 | – | > 100 | > 100 | – | > 100 | > 100 | > 100 | – | – | – | – | – | – | – | > 100 | – | – | > 100
CCOC(=O)c1c[nH]c2ccc3c(c2c1=O)S(=O)(=O)CC3 (tested in a mixture with another compound) | > 100 | > 100 | > 100 | > 100 | – | > 100 | > 100 | – | – | – | – | – | – | – | – | – | – | – | > 100
O=C1NC2CCCCCC2C12CCCCC2 (stereo unspecified) | – | – | > 100 | > 100 | > 100 | – | > 100 | – | – | – | – | – | – | – | – | > 100 | – | – | –
CSc1c(C#N)c(N)n(-c2ccc(Cl)cc2)c(=O)c1C#N | > 100 | > 100 | > 100 | > 100 | – | > 100 | > 100 | > 100 | – | – | – | – | – | – | – | > 100 | – | – | > 100
CCN(CC)c1nnc(CCCCCCCCc2nnc(N(CC)CC)o2)o1 | > 100 | > 100 | > 100 | > 100 | > 100 | > 100 | > 100 | > 100 | – | – | – | – | – | – | – | – | – | – | > 100
CC1CC(C#N)=C2NCCN2C1=O (stereo unspecified) | > 100 | > 100 | > 100 | > 100 | – | – | > 100 | > 100 | – | – | – | – | – | – | – | > 100 | – | – | 28.5
COc1cc(Nc2nc3cc(C(F)(F)F)ccc3n3cccc23)cc(OC)c1OC | > 100 | > 100 | > 100 | – | > 100 | > 100 | > 100 | > 100 | – | – | – | – | – | – | – | – | – | – | > 100
CN1CCN(P2(=S)Oc3ccc4ccccc4c3-c3c(ccc4ccccc34)O2)CC1 | 42.4 | 64 | > 100 | > 100 | – | 59.7 | > 100 | – | – | – | – | – | – | – | – | – | – | – | 53.2
COc1cc(CNc2nc3ccccc3nc2C(=O)O)cc(OC)c1OC | – | > 100 | > 100 | > 100 | > 100 | > 100 | > 100 | > 100 | – | – | – | – | – | – | – | > 100 | – | – | > 100
Cn1c(=O)n2n(c1=O)C(C)(C13CC4CC(CC(C4)C1)C3)C13CC4CC(CC1C4)CC23 (stereo unspecified) | > 100 | – | > 100 | – | > 100 | > 100 | > 100 | > 100 | – | – | – | – | – | – | – | > 100 | – | – | > 100
COC(=O)C(=O)Cc1nc2ccccc2o1 | > 100 | > 100 | > 100 | > 100 | > 100 | – | – | – | – | – | – | – | – | – | – | > 100 | – | – | –
